Consider 19 compounds from paper doi:10.1101/2024.08.25.609621 (bioRxiv, 2024).

In general, Hill slope refers to a measure of the steepness of the concentration-response curve. Broadly, the IC50 is the midpoint of a concentration-inhibition curve.

Like-named read-outs stand apart in the source and are kept apart here.

The target of test [1] is SARS-CoV-2 NSP3 macrodomain (Mac1), P43 crystal form (Severe acute respiratory syndrome coronavirus 2, UniProt P0DTD1). The class given is binding. Conditions: for 1-BDC: PanDDA background density correction; for X-ray crystal structure: X-ray crystal structure determined (TRUE); for Total number of conformations: ligand conformations modeled in Mac1 crystal structure; for Binding site: site of ligand in X-ray crystal structure; for X-ray crystallography: Binding site: site where the ligand is bound in the X-ray crystal structure.

In test [2] the target is SARS-CoV-2 NSP3 macrodomain (Mac1) (Severe acute respiratory syndrome coronavirus 2, UniProt P0DTD1). Description: biochemical. In kind it is binding. To be noted: for Hill slope: HTRF dose-response fit, Mac1; for SARS CoV-2 macrodomain HTRF assay: Hillslope: dose-response fit; for IC50: dose-response, read-out: SARS CoV-2 macrodomain HTRF assay: IC50.
Setting [3] is: crystal soak, soak concentration 10 mM.
The mark [4] stands for this setting: crystal soak, soak concentration 10 mM, TRUE = ligand hit.
The mark [5] stands for this setting: occupancy estimate from PanDDA 1-BDC.
[6] abbreviates: crystal soak 10 mM, P43 crystals.
[7] abbreviates: occupancy estimate from PanDDA BDC.

Consider `OCC(Nc1ncnc2[nH]ccc12)c1ccccc1` (centres unmarked) [AVI-3715], for which, in test [1], the 1-BDC was found to be 0.18, the X-ray crystal structure entry is “TRUE”, the “Total number of conformations” value is on record as 1 and the Binding site result is given as “Adenosine”. In test [1] (setting [3]), the “Pandda run, overall: Modeled” value is recorded as “TRUE”. Further, in test [1] (setting [4]), the “Pandda run, overall: Hit” value is “TRUE”. Further, the “2*(1-BDC) (%)” value in test [1] (setting [5]) is on record as 36%. Further, in test [1] (soak concentration 10 mM), the “PanDDA run, DMSO background map: 1-BDC” value came to 0.18 and the “PanDDA run, DMSO background map: Hit” value is given as “TRUE”.

For the compound `OCC1COCCN1c1ncnc2[nH]ccc12` (centres unmarked) [AVI-3717], in test [1], the 1-BDC came out at 0.14, the “Total number of conformations” value is given as 2 and the “X-ray crystallography: Binding site” value is recorded as “Adenosine”. In test [1] (setting [3]), the “Pandda run, overall: Modeled” value is “TRUE”. In addition, the “Pandda run, overall: Hit” value in test [1] (setting [4]) was “TRUE”. In test [1] (setting [5]), the “2*(1-BDC) (%)” value was 28%. Moreover, in test [1] (soak concentration 10 mM), the “PanDDA run, DMSO background map: 1-BDC” value stood at 0.14 and the “PanDDA run, DMSO background map: Hit” value is listed as “TRUE”.

Consider `CC(C)(C)C1CCC(CO)N(c2ncnc3[nH]ccc23)C1` (centres unmarked) [AVI-3719], for which, in test [1], the 1-BDC is on record as 0.08, the “Total number of conformations” value was 1 and the “X-ray crystallography: Binding site” value was “Adenosine”. For the same compound, the “Phe132 loop open state” value in test [1] (TRUE = open state of Phe132 loop modeled) is reported as “TRUE”. The “Pandda run, overall: Modeled” value in test [1] (setting [3]) is reported as “TRUE”. In addition, the “Pandda run, overall: Hit” value in test [1] (setting [4]) is “TRUE”. For the same compound, the “2*(1-BDC) (%)” value in test [1] (setting [5]) is 16%. Besides, in test [1] (soak concentration 10 mM), the “PanDDA run, DMSO background map: 1-BDC” value is recorded as 0.08 and the “PanDDA run, DMSO background map: Hit” value is on record as “TRUE”.

Take `CN1CCN(c2ncnc3[nH]ccc23)C(CO)C1` (centres unmarked) [AVI-3721]: in test [1], the 1-BDC came to 0.06, the “Total number of conformations” value amounted to 2 and the “X-ray crystallography: Binding site” value is reported as “Adenosine”. For the same compound, the “Pandda run, overall: Modeled” value in test [1] (setting [3]) was “TRUE”. Further, the “Pandda run, overall: Hit” value in test [1] (setting [4]) is “TRUE”. Moreover, the “2*(1-BDC) (%)” value in test [1] (setting [5]) is listed as 12%. In test [1] (soak concentration 10 mM), the “PanDDA run, DMSO background map: 1-BDC” value is listed as 0.06 and the “PanDDA run, DMSO background map: Hit” value is “TRUE”.

As for `CC(C)(C)[C@@H]1CCN(c2ncnc3[nH]ccc23)[C@H](CO)C1` [AVI-3722], in test [1], the 1-BDC was determined as 0.11, the “Total number of conformations” value was found to be 1 and the “X-ray crystallography: Binding site” value was “Adenosine”. Moreover, the “Pandda run, overall: Modeled” value in test [1] (setting [3]) is recorded as “TRUE”. Moreover, in test [1] (setting [4]), the “Pandda run, overall: Hit” value is “TRUE”. In test [1] (setting [5]), the “2*(1-BDC) (%)” value is listed as 22%. Also, in test [1] (soak concentration 10 mM), the “PanDDA run, DMSO background map: 1-BDC” value is 0.11 and the “PanDDA run, DMSO background map: Hit” value was “TRUE”.

On to `CC1(C)CCC(CO)N(c2ncnc3[nH]ccc23)C1` (centres unmarked) [AVI-3726], for which, in test [1], the 1-BDC was determined as 0.17, the “Total number of conformations” value was 3 and the “X-ray crystallography: Binding site” value is “Adenosine”. The “Pandda run, overall: Modeled” value in test [1] (setting [3]) is recorded as “TRUE”. Moreover, the “Pandda run, overall: Hit” value in test [1] (setting [4]) is on record as “TRUE”. In addition, the “2*(1-BDC) (%)” value in test [1] (setting [5]) was 34%. Besides, in test [1] (soak concentration 10 mM), the “PanDDA run, DMSO background map: 1-BDC” value was found to be 0.17 and the “PanDDA run, DMSO background map: Hit” value is “TRUE”.

Regarding `OCC1CC2(CCCCC2)CN1c1ncnc2[nH]ccc12` (centres unmarked) [AVI-3727], in test [1], the 1-BDC amounted to 0.29, the “Total number of conformations” value was 1 and the “X-ray crystallography: Binding site” value is listed as “Adenosine”. Besides, in test [1] (setting [3]), the “Pandda run, overall: Modeled” value is listed as “TRUE” and the “Pandda run, overall: Modeling comment” value is listed as “Distal site, weak density, not modeled”. Further, the “Pandda run, overall: Hit” value in test [1] (setting [4]) is recorded as “TRUE”. In addition, in test [1] (setting [5]), the “2*(1-BDC) (%)” value is given as 58%. In addition, in test [1] (soak concentration 10 mM), the “PanDDA run, DMSO background map: 1-BDC” value is 0.29 and the “PanDDA run, DMSO background map: Hit” value is recorded as “TRUE”.

Take `OCC1CC2(CCC2)CN1c1ncnc2[nH]ccc12` (centres unmarked) [AVI-3728]: in test [1], the 1-BDC came to 0.24, the “Total number of conformations” value was 2 and the “X-ray crystallography: Binding site” value is “Adenosine”. Besides, in test [1] (setting [3]), the “Pandda run, overall: Modeled” value is “TRUE” and the “Pandda run, overall: Modeling comment” value was “Distal site, weak density, not modeled”. The “Pandda run, overall: Hit” value in test [1] (setting [4]) is on record as “TRUE”. Also, the “2*(1-BDC) (%)” value in test [1] (setting [5]) is listed as 48%. For the same compound, in test [1] (soak concentration 10 mM), the “PanDDA run, DMSO background map: 1-BDC” value stood at 0.24 and the “PanDDA run, DMSO background map: Hit” value is given as “TRUE”.

`C[C@@H](O)[C@H](CO)Nc1ncnc2[nH]ccc12.O=C(O)C(F)(F)F` [AVI-3730]: in test [1], the 1-BDC came out at 0.14, the X-ray crystal structure entry is reported as “TRUE”, the “Total number of conformations” value worked out at 1 and the Binding site entry is listed as “Adenosine”. In test [1] (setting [3]), the “Pandda run, overall: Modeled” value is on record as “TRUE”. Further, the “Pandda run, overall: Hit” value in test [1] (setting [4]) is “TRUE”. For the same compound, the “2*(1-BDC) (%)” value in test [1] (setting [5]) is recorded as 28%. Further, in test [1] (soak concentration 10 mM), the “PanDDA run, DMSO background map: 1-BDC” value was 0.14 and the “PanDDA run, DMSO background map: Hit” value is given as “TRUE”.

For the compound `Cc1nn(C)cc1C1CCC(CO)N1c1ncnc2[nH]ccc12` (centres unmarked) [AVI-3733], in test [1], the 1-BDC amounted to 0.1, the “Total number of conformations” value was 1 and the “X-ray crystallography: Binding site” value is on record as “Adenosine”. In addition, in test [1] (setting [6]), the “Pandda run, overall: Hit” value is “TRUE” and the “Pandda run, overall: Modeled” value is “TRUE”. Besides, in test [1] (crystal soak 10 mM), the “PanDDA run, DMSO background map: 1-BDC” value was 0.1 and the “PanDDA run, DMSO background map: Hit” value is “TRUE”. In test [1] (setting [5]), the “2*(1-BDC) (%)” value is recorded as 20%.

In the case of `OCC1CCC2(CCOCC2)CN1c1ncnc2[nH]ccc12` (centres unmarked) [AVI-4065], in test [2], the Hill slope was 1.2 and the “SARS CoV-2 macrodomain HTRF assay: Hillslope” value came to 1.2.

As for `Cc1c[nH]c2ncnc(NCC3(O)CC[S+]([O-])CC3)c12` (centres unmarked) [AVI-4198], the IC50 in test [2] was over 1000 µM.

Turning to `Cc1c[nH]c2ncnc(NCC3(O)CCS(=O)(=O)CC3)c12` [AVI-4199], the IC50 in test [2] is over 1000 µM.

For `OC1(CNc2ncnc3[nH]ccc23)CCC2(CC1)OCCO2` [AVI-4315], in test [2], the Hill slope amounted to 1.2 and the “SARS CoV-2 macrodomain HTRF assay: Hillslope” value is 1.2.

Consider `O=S1(=O)CCC(O)(CNc2ncnc3[nH]ccc23)CC1` [AVI-4316], for which the IC50 in test [2] was over 1000 µM.

Take `CC(Nc1ncnc2[nH]ccc12)C1(O)CCCCC1` (centres unmarked) [AVI-4321]: in test [2], the Hill slope is given as 1.2 and the “SARS CoV-2 macrodomain HTRF assay: Hillslope” value is 1.2.

For `CC(O)C(C)Nc1ncnc2[nH]ccc12` (centres unmarked) [AVI-5158], in test [1], the “Occupancy difference (refined_occupancy - 2*(1-BDC))” value is reported as 0, the “Refined ligand occupancy (%)” value is listed as 34%, the 1-BDC amounted to 0.17 and the X-ray crystal structure result is listed as “TRUE”. Also, in test [1], the “Total number of conformations” value came to 2 and the Binding site entry is listed as “Adenosine”. Moreover, the “PanDDA run, DMSO background map: 1-BDC” value in test [1] (event 1) turned out to be 0.17. The “2*(1-BDC) (%)” value in test [1] (setting [7]) is on record as 34%.

For `CC(C)C1CCCN1c1ncnc2[nH]ccc12` (centres unmarked) [AVI-5216], in test [1], the “Occupancy difference (refined_occupancy - 2*(1-BDC))” value was 14, the “Refined ligand occupancy (%)” value came to 40%, the 1-BDC is reported as 0.13 and the “Total number of conformations” value came to 1. In test [1], the “X-ray crystallography: Binding site” value is listed as “Adenosine”. For the same compound, in test [1] (event 1), the “PanDDA run, DMSO background map: 1-BDC” value is 0.13. Besides, in test [1] (setting [7]), the “2*(1-BDC) (%)” value is on record as 26%.

Take `FC(F)(F)C1CCCN1c1ncnc2[nH]ccc12` (centres unmarked) [AVI-5996]: the IC50 in test [2] was over 1000 µM.
